Marks after values point to notes of the source that are not given here.

The subject of the first data set is Test plants. As to the kind of experiment: Example U: Pre-emergence Test. In kind it is in vivo. The following applies: crop plant; greenhouse, 250 g of a.i./ha, after three weeks; sub-table 3. The protocol:
To produce a suitable preparation of active compound, 1 part by weight of active compound is mixed with the stated amount of solvent, the stated amount of emulsifier is added and the concentrate is diluted with water to the desired concentration.
Seeds of the test plants are sown in normal soil. After about 24 hours, the soil is sprayed with the preparation of active compound such that the particular amounts of active compound desired are applied per unit area. The concentration of the spray liquor is chosen such that the particular amounts of active compound desired are applied in 1000 l of water/ha.
After three weeks, the degree of damage to the plants is rated in % damage in comparison to the development of the untreated control.
The figures denote: • 0%=no effect (like untreated control) • 100%=total destruction
As for `Cc1cc(Cl)cc(C)c1C1=C(O)C2(CCC3(CC2)OCCCO3)NC1=O` [Ex. I-1-a-14], the “damage, Sugar beet” value is listed as 0%.

The same data set, now with this note: greenhouse, 250 g of a.i./ha, after three weeks; sub-table 2.
As to `CCOC(=O)OC1=C(c2c(C)cc(Cl)cc2Cl)C(=O)NC12CCC1(CC2)OCCO1` [Ex. I-1-c-4], the “damage, Alopecurus” value is reported as 80%; the “damage, Echinochloa” value was found to be 90%; the “damage, Setaria” value is 99%; the “damage, Sinapis” value is 80%. For the molecule `Cc1cc(Cl)cc(Cl)c1C1=C(O)C2(CCC3(CC2)OCCCO3)NC1=O` [Ex. I-1-a-11], the “damage, Alopecurus” value was 90%; the “damage, Avena fatua” value was determined as 70%; the “damage, Echinochloa” value was 80%; the “damage, Setaria” value came to 90%.

Staying with this data set, now noted: greenhouse, 250 g of a.i./ha, after three weeks; sub-table 3.
On to `Cc1cc(Cl)cc(C)c1C1=C(O)C2(CCC3(CC2)OCCCO3)NC1=O` [Ex. I-1-a-14], for which the “damage, Alopecurus” value is listed as 95%; the “damage, Avena fatua” value was 80%; the “damage, Echinochloa” value is reported as 80%; the “damage, Setaria” value was found to be 90%.

Staying with this data set, now noted: greenhouse, 250 g of a.i./ha, after three weeks; sub-table 4.
In the case of `Cc1cc(Cl)cc(Cl)c1C1=C(O)C2(CCC3(CC2)OCCCO3)NC1=O` [Ex. I-1-a-11], the “damage, Alopecurus” value is 80%; the “damage, Echinochloa” value was 80%; the “damage, Setaria” value was determined as 100%.

For a further data set, the system named is Phaedon cochleariae. Kind of data set: Example N: Phaedon Test (spray treatment). In kind it is in vivo. The conditions noted are these: application rate 500 g/ha. How it is done: [table] To produce a suitable preparation of active compound, 1 part by weight of active compound is mixed with the stated amounts of solvents and emulsifier, and the concentrate is diluted with emulsifier-containing water to the desired concentration. Discs of Chinese cabbage (Brassica pekinensis) are sprayed with a preparation of active compound of the desired concentration and, after drying, populated with larvae of the mustard beetle (Phaedon cochleariae).
On to `Cc1ccc(-c2ccc(Cl)cc2)cc1C1=C(O)C2(CCC3(CC2)OCCC(C)O3)NC1=O` (mixture of isomers) [Ex. I-1-a-66], for which the activity in % amounted to 100%. For the molecule `CC1COC2(CCC3(CC2)NC(=O)C(c2cc(-c4ccc(Cl)cc4)ccc2Cl)=C3O)OC1` (mixture of isomers) [Ex. I-1-a-65], the activity in % is recorded as 100%.

As to `CCc1cc(Br)cc(C)c1C1=C(O)C2(CCC3(CC2)OCCO3)NC1=O` [Ex. I-1-a-39], the activity in % worked out at 100%. The same measure, in the same setting: under `O=C1NC2(CCC3(CC2)OCCO3)C(O)=C1c1cc(-c2ccc(Cl)cc2)ccc1Cl` [Ex. I-1-a-49] stands 100%. Same read-out and setting: under `Cc1cc(Cl)cc(C)c1C1=C(O)C2(CCC3(CC2)OC(C)C(C)O3)NC1=O` (mixture of isomers) [Ex. I-1-a-30] stands 100%; under `Cc1ccc(-c2ccc(Cl)cc2)cc1C1=C(O)C2(CCC3(CC2)OCCCO3)NC1=O` [Ex. I-1-a-16], 100%; under `CCCC1COC2(CCC3(CC2)NC(=O)C(c2c(C)cc(C)cc2C)=C3O)O1` (centres unmarked) [Ex. I-1-a-8], 100%. `Cc1cc(Cl)cc(C)c1C1=C(O)C2(CCC3(CC2)OC(C)CC(C)O3)NC1=O` (mixture of isomers) [Ex. I-1-a-38] gave an activity in % of 100%. On the same count and under the same terms, the figure for `Cc1ccc(-c2ccc(Cl)cc2)c(C)c1C1=C(O)C2(CCC3(CC2)OCC(C)O3)NC1=O` (mixture of isomers) [Ex. I-1-a-51] is 100%; for `Cc1ccc(-c2ccc(Cl)cc2)cc1C1=C(O)C2(CCC3(CC2)OCCO3)NC1=O` [Ex. I-1-a-27] it is 100%.

Take `COc1cc(C)cc(C)c1C1=C(O)C2(CCC3(CC2)OCCO3)NC1=O` [Ex. I-1-a-43]: the activity in % worked out at 100%.

On to `CC1(C)COC2(CCC3(CC2)NC(=O)C(c2cc(-c4ccc(Cl)cc4)ccc2Cl)=C3O)OC1` [Ex. I-1-a-64], for which the activity in % stood at 100%. `Cc1ccc(C)c(C2=C(O)C3(CCC4(CC3)OCCO4)NC2=O)c1` [Ex. I-1-a-68] displayed an activity in % of 100%. On the same count and under the same terms, the figure for `CCOC(=O)OC1=C(c2c(C)cc(C)cc2OC)C(=O)NC12CCC1(CC2)OCCCO1` [Ex. I-1-c-34] is 100%; for `CCc1cc(Br)cc(C)c1C1=C(O)C2(CCC3(CC2)OCC(C)O3)NC1=O` (mixture of isomers) [Ex. I-1-a-53] it is 100%.

`CCCC1COC2(CCC3(CC2)NC(=O)C(c2c(C)cc(C)cc2C)=C3O)O1` (single isomer, unassigned) [Ex. I-1-a-9] registered an activity in % of 100%. In turn, `Cc1cc(Cl)cc(C)c1C1=C(O)C2(CCC3(CC2)OCC(C)CO3)NC1=O` (mixture of isomers) [Ex. I-1-a-34] returned an activity in % of 100%. The molecule `Cc1cc(Br)cc(C)c1C1=C(O)C2(CCC3(CC2)OC(C)C(C)O3)NC1=O` (mixture of isomers) [Ex. I-1-a-46] returned an activity in % of 100%. Still for that read-out and setting: under `Cc1ccc(-c2ccc(Cl)cc2)cc1C1=C(O)C2(CCC3(CC2)OCC(C)O3)NC1=O` (mixture of isomers) [Ex. I-1-a-52] stands 100%; under `Cc1cc(Br)cc(C)c1C1=C(O)C2(CCC3(CC2)OCC(C)O3)NC1=O` (mixture of isomers) [Ex. I-1-a-47], 100%. On the same count and under the same terms, under `Cc1cc(Cl)cc(C)c1C1=C(O)C2(CCC3(CC2)OCC(C)(C)CO3)NC1=O` [Ex. I-1-a-20] stands 100%; under `Cc1cc(Br)cc(C)c1C1=C(O)C2(CCC3(CC2)OC(C)CC(C)O3)NC1=O` (mixture of isomers) [Ex. I-1-a-56], 100%; under `COc1cc(C)cc(C)c1C1=C(O)C2(CCC3(CC2)OCCCO3)NC1=O` [Ex. I-1-a-24], 100%. `CCc1cc(Br)cc(C)c1C1=C(O)C2(CCC3(CC2)OC(C)CC(C)O3)NC1=O` (mixture of isomers) [Ex. I-1-a-63]: the activity in % came to 100%. `Cc1cc(Br)cc(C)c1C1=C(O)C2(CCC3(CC2)OCC(C)CO3)NC1=O` (mixture of isomers) [Ex. I-1-a-32] returned an activity in % of 100%. Still for that read-out and setting: the figure for `CCOC(=O)OC1=C(c2cc(-c3ccc(Cl)cc3)ccc2C)C(=O)NC12CCC1(CC2)OCCCO1` [Ex. I-1-c-31] is 100%; for `Cc1cc(Br)cc(C)c1C1=C(O)C2(CCC3(CC2)OCC(C)(C)CO3)NC1=O` [Ex. I-1-a-33] it is 100%; for `CCOC(=O)OC1=C(c2cc(C)ccc2C)C(=O)NC12CCC1(CC2)OCC(C)O1` (mixture of isomers) [Ex. I-1-c-19] it is 100%. As for `Cc1ccc(-c2ccc(Cl)cc2)cc1C1=C(O)C2(CCC3(CC2)OCC(C)(C)CO3)NC1=O` [Ex. I-1-a-67], the activity in % is 100%. Still for that read-out and setting: under `COCC1COC2(CCCC3(C2)NC(=O)C(c2c(C)cc(C)cc2C)=C3O)O1` (mixture of isomers) [Ex. I-1-a-71] stands 100%. On to `Cc1cc(Cl)cc(C)c1C1=C(O)C2(CCC3(CC2)OCC(C)O3)NC1=O` (mixture of isomers) [Ex. I-1-a-31], for which the activity in % is given as 100%.

With `Cc1cc(C)c(C2=C(O)C3(CCC4(CC3)OC(C)C(C)O4)NC2=O)c(C)c1` (mixture of isomers) [Ex. I-1-a-10], the activity in % worked out at 100%. `Cc1ccc(C)c(C2=C(O)C3(CCC4(CC3)OCC(C)(C)CO4)NC2=O)c1` [Ex. I-1-a-61] gave an activity in % of 100%. On the same count and under the same terms, under `Cc1ccc(-c2ccc(Cl)cc2)cc1C1=C(O)C2(CCC3(CC2)OC(C)C(C)O3)NC1=O` (mixture of isomers) [Ex. I-1-a-54] stands 100%. The same measure, in the same setting: the figure for `CCc1cc(Br)cc(C)c1C1=C(O)C2(CCC3(CC2)OC(C)C(C)O3)NC1=O` (mixture of isomers) [Ex. I-1-a-45] is 100%.

Test system in the next data set: not listed separately
As to the kind of experiment: log P determination by HPLC/LC-MS retention times, calibration with alkan-2-ones. In kind it is physicochemical. The conditions noted are these: HPLC on reversed-phase column (C 18), 43° C., EEC Directive 79/831 Annex V.A8. How it is done:
In the acidic range, the determination is carried out at pH 2.3 using 0.1% aqueous phosphoric acid and acetonitrile as mobile phases; linear gradient from 10% acetonitrile to 95% acetonitrile.
The determination by LC-MS in the acidic range is carried out at pH 2.7 using 0.1% aqueous formic acid and acetonitrile (comprises 0.1% formic acid) as mobile phases; linear gradient from 10% acetonitrile to 95% acetonitrile.
The determination by LC-MS in the neutral range is carried out at pH 7.8 using 0.001 molar aqueous ammonium bicarbonate solution and acetonitrile as mobile phases; linear gradient from 10% acetonitrile to 95% acetonitrile.
Calibration is carried out using unbranched alkan-2-ones (having 3 to 16 carbon atoms) with known log P values (determination of the log P values by the retention times using linear interpolation between two successive alkanones).
With `COC(=O)C1(NC(=O)Cc2cc(C)c(C)cc2C)CCC2(CC1)OCCCO2` [II-17], the “log P” value was “log P 2.59*”. Take `COC(=O)C1(NC(=O)Cc2c(C)cc(C)cc2C)CCC2(CC1)OCCO2` [II-2]: the “log P” value is “log P 2.68”. As for `COC(=O)C1(NC(=O)Cc2c(C)cc(Br)cc2C)CCC2(CC1)OCCO2` [II-7], the “log P” value is “wax log P 2.81*”. For the molecule `COC(=O)C1(NC(=O)Cc2cc(-c3ccc(Cl)cc3)ccc2C)CCC2(CC1)OCCO2` [II-31], the “log P” value is “log P 3.47*”. Still for that read-out and setting: under `CCc1cc(C)cc(Br)c1CC(=O)NC1(C(=O)OC)CCC2(CC1)OCCO2` [II-36] stands “log P 3.04*”; under `COC(=O)C1(NC(=O)Cc2c(C)cc(C)cc2OC)CCC2(CC1)OCCCO2` [II-24], “log P 2.49*”; under `CCc1cc(C)cc(C)c1CC(=O)NC1(C(=O)OC)CCC2(CC1)OCCO2` [II-8], “wax log P 2.95*”. Same read-out and setting: the entry for `CCc1cc(C)cc(CC)c1CC(=O)NC1(C(=O)OC)CCC2(CC1)OCCO2` [II-32] is “log P 3.28*”. `CCc1cc(Br)cc(C)c1CC(=O)NC1(C(=O)OC)CCC2(CC1)OCCO2` [II-9]: the “log P” value is “wax log P 3.19*”.

The same data set, now with this note: HPLC/LC-MS retention times; printed in the Isomer column of the (I-1-a) table.
As for `CCCC1COC2(CCC3(CC2)NC(=O)C(c2c(C)cc(C)cc2C)=C3O)O1` (centres unmarked) [Ex. I-1-a-8], the chromatographic logP (usually lipophilicity estimated from chromatographic retention) came out at 2.73.

The data set is the same for the next values; noted with them: printed in the Isomer column of the (I-1-a) table.
For the molecule `CCCC1COC2(CCC3(CC2)NC(=O)C(c2c(C)cc(C)cc2C)=C3O)O1` (single isomer, unassigned) [Ex. I-1-a-9], the logP – broadly, a log measure of how a compound divides between an organic and an aqueous phase – is 2.78.
